Data from patent publication US9392791B2, “Amide compound and use thereof for pest control” (Sumitomo Chemical Company, priority 2012, dated 2016).

Key:
[1] = system: Haemaphysalis longicornis; test: Test Example 11: coated screw tube, nymphal ticks Haemaphysalis longicornis; format: in vivo; settings: 2 mg compound in 0.2 mL acetone coated on inner wall of screw tube, non-blood-sucking nymphal ticks, after 2 days
Description: 2 mg of each of Compounds of Present Invention 1, 2, 13, 20, 21, 45 to 47, 52 to 55 and 57 and Intermediate Compound M6-13 was weighed in a screw tube (Maruemu No. 5; 27×55 mm), and 0.2 mL of acetone was added thereto and sealed with a cap to dissolve the compound. The screw tube was rotated and inverted to uniformity coat the drug solution onto the whole inner wall of the tube. After removing the cap, the solution was air-dried for about 2 hours, then non-blood-sucking nymphal ticks, Haemaphysalis longicornis (5 ticks/group) were released, and the tube was sealed with the cap. After 2 days, the number of dead ticks was examined, and the mortality was calculated according to the following equation: Mortality (%)=100×(Number of dead ticks/Number of tested ticks).

[2] = system: Musca domestica; test: Test Example 8: treated filter paper with sucrose bait, Musca domestica female adults; format: in vivo; settings: 500 ppm, 0.7 ml on filter paper, after 24 hours
Description: The formulations of Compounds of Present Invention 1 to 3, 9, 13 to 16 and 57 as obtained in Formulation Example 5 were diluted with water, so as to have a concentration of the active ingredient of 500 ppm, to prepare a diluted liquid for test.
A filter paper having a diameter of 5.5 cm was spread on the bottom of a polyethylene cup having the same diameter and 0.7 ml of the diluted liquid for test was added dropwise onto the filter paper, and 30 mg of sucrose was uniformly placed as bait. Into the polyethylene cup, 10 female adults of Musca domestica were released, and the cup was sealed with a lid. After 24 hours, survived and dead number of Musca domestica was examined, and the mortality was calculated.

Structure (SMILES) | mortality [1] [%] | mortality [2] [%]
CCSc1ccccc1C(=O)N(C)c1ccc(C(F)(F)C(F)(F)F)cn1 [compound 13] | 100 | 
CC[S+]([O-])c1cc(C(F)(F)F)ccc1C(=O)N(C)c1ccc(C(F)(F)C(F)(F)F)cn1 (stereo not shown) [compound 20] | 100 | 
CC[S+]([O-])c1cc(C(F)(F)F)ccc1C(=O)N(C)c1ccc(SC(F)(F)F)cn1 (stereo not shown) [compound 21] | 100 | 
CC[S+]([O-])c1ccccc1C(=O)N(C)c1ccc(SC(F)(F)F)cn1 (stereo not shown) [compound 57] |  | 100
